Assay: CMC via the Wilhelmy plate technique
Format: physicochemical
Description: Not to be bound by theory, surfactants with low CMC values tend to be more mild to enzymes based on low monomer concentrations in solution which interfere with enzyme stability. The measured CMC, via the Wilhelmy plate technique, of SHP is 30 mg/L while that of the sodium salt of AES is 80 mg/L and NaLAS is 900 mg/L.

- CMC: 900 mg/L
Substance: linear alkylbenzene sulfonic acid, sodium salt [NaLAS]

Reference: patent EP2277860B1, “Compositions comprising sulfonated estolides and alkyl ester sulfonates, methods of making them, and compositions and processes employing them” (STEPAN COMPANY, priority 2009, dated 2011)
